From US10398689B2, “Benzopiperidine derivative, preparation method thereof and medical use thereof” (Jiangsu Hengrui Medicine Co., Ltd., priority 2015, dated 2019) come the findings set out here.

For one test, the target named is T1, ER (estrogen receptor) (Homo sapiens, UniProt P03372).
T1 construct: MCF-7/ERE-luciferase monoclonal cells were selected by transfection of MCF-7; host or cells: MCF-7/ERE-luciferase (only the ERE-luciferase reporter was transfected)
T1 sequence (P03372 1-595): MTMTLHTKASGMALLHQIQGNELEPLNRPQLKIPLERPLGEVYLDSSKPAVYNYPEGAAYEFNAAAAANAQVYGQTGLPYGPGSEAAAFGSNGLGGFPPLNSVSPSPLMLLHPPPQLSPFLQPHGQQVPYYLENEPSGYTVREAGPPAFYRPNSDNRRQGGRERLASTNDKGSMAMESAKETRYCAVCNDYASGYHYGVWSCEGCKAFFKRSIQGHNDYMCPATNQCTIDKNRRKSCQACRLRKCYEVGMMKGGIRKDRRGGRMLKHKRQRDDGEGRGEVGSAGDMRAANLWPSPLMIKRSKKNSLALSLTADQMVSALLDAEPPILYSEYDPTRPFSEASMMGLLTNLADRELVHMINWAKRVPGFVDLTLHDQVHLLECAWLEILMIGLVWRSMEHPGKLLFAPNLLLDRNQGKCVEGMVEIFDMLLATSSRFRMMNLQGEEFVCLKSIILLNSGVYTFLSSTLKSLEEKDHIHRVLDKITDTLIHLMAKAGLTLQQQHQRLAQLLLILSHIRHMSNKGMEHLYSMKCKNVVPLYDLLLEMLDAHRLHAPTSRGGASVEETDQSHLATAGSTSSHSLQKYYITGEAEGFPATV
Briefly: Inhibition of the binding of estrogen (E) to estrogen receptor (ER), MCF-7/ERE-luciferase reporter cells. It counts as cell-based. Particulars: MCF-7/ERE-luciferase cells, 0.1 nM estradiol, 24 hours, chemiluminescence; read-out: IC50 value of inhibition effect on the binding of E to ER. As for the experimental part: The compounds of the present invention have an inhibition effect on the binding of E (estrogen) to ER (estrogen receptor), thereby blocking the binding of a complex of E and ER complex to ERE (estrogen responsive element), and subsequently blocking the expression of downstream luciferase protein.
The inhibition effect of the compounds on the binding of E to ER in vitro was tested by the following method.
The object of this experiment was to determine the inhibition effect of the compounds on the binding of E to ER, and the in vitro activity of the compounds was evaluated according to the IC50 values.
ERE was cloned into the upstream of the luciferase gene, and MCF-7/ERE-luciferase monoclonal cells were selected by transfection of MCF-7 (Cell Bank of Chinese Academy of Sciences typical culture preservation Committee, TCHu74). MCF-7/ERE-luciferase cells were inoculated into the MEM medium (hyclone, SH30024.01B) containing 10% charcoal stripped FBS (Moregate, FBSF), 1% sodium pyruvate (Sigma, S8636), 1% nonessential amino acids (Sigma, M7145) and 500 μg/ml G418 in a 96-well plates with a density of 30,000 cells/well, and the cells were incubated under the conditions of 37° C., and 5% CO2. The drug was prepared as a 20 mM stock solution that was later diluted with 100% DMSO in 10 fold concentration gradient, and then diluted 20-fold with the medium DMEM. After incubation for 24 hours, the medium was removed, then 0.1 nM estradiol (Sigma, E2758) and 10 μl of the drug diluted with the medium were added to each well, and the control group was added with DMSO. The plate was gently shaken and incubated in a incubator at 37° C., 5% CO2. After 24 hours, the cell culture medium was discarded, Then, 50 μl of the prepared luciferase substrate (Promega, E6110) was added to each well, and the plate was placed in the dark at room temperature for 10-15 minutes, then the chemiluminescence signal value was determined.
The inhibition effect of the compounds of the present invention on the binding of E to ER was tested by the experiment described above. The values of the chemiluminescence signal vs the logarithmic concentrations of the compounds were plotted using Graphpad Prism, and the measured IC50 values are shown in Table 1.

The subject of another test is MCF7 cells. Briefly: Inhibition of the proliferation of MCF7 cells (Cell Titer-Glo). It counts as cell-based. Particulars: Homo sapiens, MCF-7 cells, 72 hours, read-out: IC50 value of inhibition effect on the proliferation of MCF7 cells. As for the experimental part: The object of this experiment was to determine the inhibition effect of the compounds on the proliferation activity of MCF7 cells, and the in vitro activity of the compounds was evaluated according to the IC50 values.
MCF-7 cells (Cell Bank of Chinese Academy of Sciences typical culture preservation Committee, TChu 74) were inoculated into the MEM medium (Hyclone, SH30024.01B) containing 10% FBS (Gibco, 10099-141), 1% sodium pyruvate (Sigma, S8636), and 1% nonessential amino acids (Sigma, M7145) in a 96-well plate with a density of 40,000 cells/well, and the cells were incubated under the conditions of 37° C., and 5% CO2. The compound was prepared as a 20 mM stock solution that was later diluted to 1000× final concentration with 100% DMSO, and then diluted with 20-fold medium containing 2% FBS. After incubation for 24 hours, the medium was removed and 90 μl of the medium containing 2% FBS and 10 μl of the drug were added to each well, 10 […] of DMSO was added to the control group, and the blank group contained only 100 μl medium containing 2% FBS. The plate was gently shaken and incubated in a incubator at 37° C., 5% CO2. After 72 hours later, 50 μl of mixed Cell Titer-Glo (Promega, G7571) was added to each well. The plate was shaken until the ingredients were mixed uniformly, and placed at room temperature for 10 minutes, then the chemiluminescence signal value was determined. The inhibition effect of the compound AZD9496 at 100 nM on the proliferation of MCF-7 cells was set to 100%, the maximum inhibition rate of other compounds=(chemiluminescence signal valuenegative control−chemiluminescence signal valuecompound 100 nm)/(chemiluminescence signal valuenegative control−chemiluminescence signal valueAZD9496 100 nm)×100%, and the negative control was a well with 0.5% DMSO.
The values of the chemiluminescence signals vs the logarithmic concentrations of the compounds were plotted using Graghpad Prism to obtain the IC50 values.

For the molecule `CC1Cc2cc(-c3cnn(C(F)F)c3)ccc2C(c2ccc(/C=C/C(=O)O)cc2)N1c1ccc(C2CC2)cc1` (centres unmarked) [Example 29], the IC50 on ER (estrogen receptor) was determined as 1.26 nM; with MCF7 cells, 2.36 nM.

Turning to `CCc1ccc(N2C(C)Cc3cc(-c4cnn(CC)c4)ccc3C2c2ccc(/C=C/C(=O)O)cc2)c(Cl)c1` [Example 23, (E)-3-(4-((1R,3R/1S,3S)-2-(2-Chloro-4-ethylphenyl)-6-(1-ethyl-1H-pyrazol-4-yl)-3-methyl-1,2,3,4-tetrahydroisoquinolin-1-yl)phenyl)acrylic acid], the IC50 at ER (estrogen receptor) worked out at 0.85 nM; in the test with MCF7 cells, 0.81 nM. On the same counts, the results for `CC1Cc2cc(-c3cn[nH]c3)ccc2C(c2ccc(/C=C/C(=O)O)cc2)N1c1ccc(C2CC2)cc1` [Example 36, (E)-3-(4-((1R,3R/1S,3S)-2-(4-cyclopropylphenyl)-3-methyl-6-(1H-pyrazol-4-yl)-1,2,3,4-tetrahydroisoquinolin-1-yl)phenyl)acrylic acid] are 5.63 nM and 2.8 nM. For `CC(C)c1ccc(N2C(C)Cc3cc(-c4cnn(C(F)F)c4)ccc3C2c2ccc(/C=C/C(=O)O)cc2)cc1` (centres unmarked) [Example 49] the same measures were 3.46 nM and 1.04 nM. On to `CCn1cc(-c2ccc3c(c2)CC(C)N(c2ccc(C4CC4)cc2)C3c2c(F)cc(/C=C/C(=O)O)cc2F)cn1` [Example 30, (E)-3-(4-((1S,3R/1R,3S)-2-(4-Cyclopropylphenyl)-6-(1-ethyl-1H-pyrazol-4-yl)-3-methyl-1,2,3,4-tetrahydroisoquinolin-1-yl)-3,5-difluorophenyl)acrylic acid], for which the results for the IC50 at ER (estrogen receptor) and with MCF7 cells were 0.34 nM and 2.7 nM, respectively. For `CCc1ccc(N2C(C)Cc3cc(-c4cnn(C)c4)ccc3C2c2ccc(/C=C/C(=O)O)cc2)c(CC)c1` [Example 45, (E)-3-(4-((1R,3R/1S,3S)-2-(2,4-Diethylphenyl)-3-methyl-6-(1-methyl-1H-pyrazol-4-yl)-1,2,3,4-tetrahydroisoquinolin-1-yl)phenyl)acrylic acid], on ER (estrogen receptor), the IC50 stood at 4.06 nM. As for `CCOc1ccc(N2C(C)Cc3cc(-c4cnn(C)c4)ccc3C2c2ccc(/C=C/C(=O)O)cc2)cc1` [Example 44, (E)-3-(4-((1R,3R/1S,3S)-2-(4-Ethoxyphenyl)-3-methyl-6-(1-methyl-1H-pyrazol-4-yl)-1,2,3,4-tetrahydroisoquinolin-1-yl)phenyl)acrylic acid], the IC50 at ER (estrogen receptor) was found to be 7.57 nM. The same measure, in the same setting: next, `CC1Cc2cc(-c3cnn(C)c3)ccc2C(c2ccc(/C=C/C(=O)O)cc2)N1c1ccc(CC(F)(F)F)cc1` [Example 43, (E)-3-(4-((1R,3R/1S,3S)-3-Methyl-6-(1-methyl-1H-pyrazol-4-yl)-2-(4-(2,2,2-trifluoroethyl)phenyl)-1,2,3,4-tetrahydroisoquinolin-1-yl)phenyl)acrylic acid]: 31.7 nM; `CCn1cc(-c2ccc3c(c2)CC(C)N(c2ccc(C4CC4)c(F)c2)C3c2ccc(/C=C/C(=O)O)cc2)cn1` [Example 26, (E)-3-(4-((1R,3R/1S,3S)-2-(4-Cyclopropyl-3-fluorophenyl)-6-(1-ethyl-1H-pyrazol-4-yl)-3-methyl-1,2,3,4-tetrahydroisoquinolin-1-yl)phenyl)acrylic acid]: 6.76 nM. With `Cc1ccc(N2[C@H](c3ccc(/C=C/C(=O)O)cc3)c3ccc(-c4cnn(C)c4)cc3C[C@H]2C)cc1` [Example 34], the IC50 at ER (estrogen receptor) worked out at 5.42 nM. Take `CCCc1ccc(N2C(C)Cc3cc(-c4cnn(C)c4)ccc3C2c2ccc(/C=C/C(=O)O)cc2)cc1` [Example 20, (E)-3-(4-((1R,3R/1S,3S)-3-Methyl-6-(1-methyl-1H-pyrazol-4-yl)-2-(4-propylphenyl)-1,2,3,4-tetrahydroisoquinolin-1-yl)phenyl)acrylic acid]: the IC50 in the test on MCF7 cells turned out to be 4.53 nM. `CC1Cc2cc(-c3cnn(C)c3)ccc2C(c2ccc(/C=C/C(=O)O)cc2)N1c1ccc(C(C)(C)C)cc1` [Example 41, (E)-3-(4-((1R,3R/1S,3S)-2-(4-(tert-Butyl)phenyl)-3-methyl-6-(1-methyl-1H-pyrazol-4-yl)-1,2,3,4-tetrahydroisoquinolin-1-yl)phenyl)acrylic acid]: at ER (estrogen receptor), the IC50 amounted to 8.08 nM.
